Our source for the logD and logP values is the SangsterLogP compilation.

The nature of data set [1]: method code SF-HPLC, from DOI: 10.1248/cpb.38.1906, PMID: 2268893. Particulars: pH 6.9.
Data set [2] is described as follows: method code SF-FL, from DOI: 10.1016/0006-2952(96)00248-1, PMID: 8687500.
The nature of data set [3]: method code SF-AS, from DOI: 10.1093/oxfordjournals.jbchem.a131041, PMID: 939756. As to conditions: pH 7.4.
Data set [4] can be described thus: method code SF-EN, from DOI: 10.1016/s0022-2275(20)42614-8, PMID: 2280184. Particulars: pH 1.0.
The nature of data set [5]: method code SF-RC, from DOI: 10.1016/j.nucmedbio.2005.06.001, PMID: 16253804. As to conditions: pH 7.4.
Data set [6] can be described thus: method code SF-HPLC, from DOI: 10.1016/0168-3659(88)90058-2. Particulars: pH 7.4.
Data set [7] in a line: method code SF-RC, from DOI: 10.1016/j.nucmedbio.2016.05.003, PMID: 27236283. As to conditions: pH 7.4.
Data set [8] can be described thus: method code SF-RC, from DOI: 10.1002/jlcr.1076. Particulars: pH 7.4.
Data set [9] can be described thus: method code SF-RC, from DOI: 10.1016/0361-9230(85)90153-4, PMID: 2413968.
A short description of data set [10]: method code SF-AS, from DOI: 10.1016/s0022-3565(25)38749-5, PMID: 8182532. Particulars: pH 7.4.
Data set [11] in a line: method code SF-AS, from DOI: 10.1016/j.bmcl.2014.05.029, PMID: 24930836.
Data set [12] can be described thus: method code SF-HPLC, from DOI: 10.1016/0378-5173(89)90313-x. As to conditions: pH 7.4.
Data set [13] is described as follows: method code SF-HPLC, from DOI: 10.1002/jps.2600800905, PMID: 1800703.
Data set [14] can be described thus: method code SF-AS, from DOI: 10.1021/acs.jmedchem.5b00731, PMID: 26397825. Particulars: pH 7.4.
Data set [15] can be described thus: method code SF-RC, from DOI: 10.1016/j.nucmedbio.2016.01.003, PMID: 27067043. Particulars: pH 7.4.
Data set [16] can be described thus: method code SF-AS, from DOI: 10.1016/0006-2952(90)90117-4, PMID: 2344368. As to conditions: pH 7.5.
Data set [17] is described as follows: method code RP-HPLC, from DOI: 10.1021/jm00011a007, PMID: 7540207.
Data set [18] in a line: method code SF-RC, from DOI: 10.1016/j.nucmedbio.2003.12.003, PMID: 15093819. As to conditions: pH 7.0.
Assay in data set [19]: not given
This is another data set of the same source.

The conditions of data set [20]: pH 7.4.
Data set [21] is described as follows: method code SF-AS, from DOI: 10.1016/j.bmc.2007.10.035, PMID: 18029186. As to conditions: pH 7.4.

The logD is the decadic logarithm of the distribution of all forms, ionised or not, between an organic phase and buffer at a given pH. High values mean higher lipophilicity, low ones lower lipophilicity. As usually defined, the logP is a log measure of how a compound divides between an organic and an aqueous phase.

Where a SMILES comes first, the peptide text is derived from it.

As for `CON=C(C(=O)NC1C(=O)N2C(C(=O)OCOC(=O)C(C)(C)C)=C(CN(C=O)C(C)=C3CCOC(=O)S3)CSC12)c1csc(N)n1` (stereo not drawn), the logD in data set [1] stood at 1.37.
Regarding `COc1cccc2c1C(=O)c1c(O)c3c(c(O)c1C2=O)CC(O)(C(=O)CO)CC3OC1CC(NC(=O)OCc2ccc(OC3OC(C(=O)O)C(O)C(O)C3O)c([N+](=O)[O-])c2)C(O)C(C)O1` (stereo not drawn), in data set [2], the logP is -0.74.
`COC1=C(C2=C(OC)C(=O)c3c4c(cc(OC)c3C2=O)CC(C)OC4=O)C(=O)c2c(OC)cc3c(c2C1=O)C(=O)OC(C)C3` (stereo not drawn) came in with a logD in data set [3] of 0.69.
In data set [4], `C[C@H](CCC(=O)O)[C@H]1CC[C@H]2[C@@H]3C[C@H](O)[C@@H]4C[C@H](O)CC[C@]4(C)[C@H]3C[C@H](O)[C@]12C` came in with a logD of 2.8.
For the molecule `CNc1ccc(C=Cc2ccc(OCCOCCOCCOCCOCCF)cc2)cc1`, the logD in data set [5] was found to be 2.28.
In data set [6], `C#CC1(OC(=O)OCCCCC(O)CO)CCC2C3CCC4=CC(=O)CCC4C3CCC21CC` (stereo not drawn) yielded a logD of 3.75.
In turn, `COc1cc(NCCCF)cc(OC)c1NC(=O)c1ccc(Oc2cc3c(cc2C)CCC3(C)C)o1` registered a logD in data set [7] of 1.51.
The molecule `COc1ccc2c(c1)C1(C)CCC3c4ccc(O)c(I)c4CCC3C1C2` (stereo not drawn) yielded a logD in [8] of 2.5.
In data set [2], `COc1cccc2c1C(=O)c1c(O)c3c(c(O)c1C2=O)CC(O)(C(C)=O)CC3OC1CC(NC(=O)OC2OC(C(=O)O)C(O)C(O)C2O)C(O)C(C)O1` (stereo not drawn) gave a logP of -2.
In [9], `NC(=O)CC[C@@H]1NC(=O)[C@H](Cc2ccccc2)NC(=O)[C@H](Cc2ccc(O)cc2)NC(=O)[C@@H](N)CSSC[C@@H](C(=O)N2CCC[C@H]2C(=O)N[C@@H](CCCN=C(N)N)C(=O)NCC(N)=O)NC(=O)[C@H](CC(N)=O)NC1=O` had a logP of -2.15.
In data set [10], `CC(C)CCC(=O)CC1c2ccccc2C(=O)N1c1ccc2ccc(Cl)nc2n1` (stereo not drawn) came in with a logD of 4.8.
Molecule `Cc1cc(=O)oc2cc(OCC(O)Cn3nnc4ccccc43)cc(OCC(O)Cn3nnc4ccccc43)c12` (stereo not drawn) had a logP in data set [11] of 0.48.
Molecule `C#CC1(OC(=O)OCC(O)CO)CCC2C3CCC4=CC(=O)CCC4C3CCC21CC` (stereo not drawn) gave a pH-dependent lipophilicity (logD) in [6] of 3.22.
Molecule `CN1C=CCC(C(=O)NC2CCC(OC(=O)CCCc3ccc(N(CCCl)CCCl)cc3)CC2)=C1` (stereo not drawn) displayed a logD in data set [12] of 2.85.
The molecule `CCC(C)(C)C(=O)O[C@H]1C[C@@H](C)C=C2C=C[C@H](C)[C@H](CC[C@@H](O)C[C@@H](O)CC(=O)O)[C@H]21` (relative stereo) showed a pH-dependent lipophilicity (logD) in data set [13] (pH 2.0) of 4.47.
Turning to `COCCOCCOCCOCCOCN(C)c1ccc(C=C2CC(=Cc3ccc(N(C)COCCOCCOCCOCCOC)cc3)C2=O)cc1`, in data set [14], the logD came to 2.54.
Turning to `CC(=O)O[C@H]1C(=O)[C@@]2(C)[C@H]([C@H](OC(=O)c3ccccc3)[C@]3(O)C[C@H](OC(=O)[C@@H](O)Cc4ccccc4)C(C)=C1C3(C)C)[C@]1(OC(C)=O)CO[C@@H]1C[C@@H]2O`, the logP was 2.9.
In [13] (pH 7.0), `CC[C@H](C)C(=O)O[C@H]1CCC=C2C=C[C@H](C)[C@H](CC[C@@H]3C[C@@H](O)CC(=O)O3)[C@H]21` returned a logD of 3.85.
Turning to `CON=C(C(=O)NC1C(=O)N2C(C(=O)OCOC(=O)C(C)(C)C)=C(CN(C=O)C(C)=C(CCC(C)=O)SC(C)=O)CSC12)c1csc(N)n1` (stereo not drawn), the logD in [1] amounted to 2.16.
With `C=CC(=O)NCCCCC(NC(=O)OCc1ccccc1)C(=O)N1CCN(c2ccccc2Cl)CC1` (stereo not drawn), the log distribution coefficient (logD) in data set [15] was found to be 3.
For the molecule `COCCOCCOCCOCCOCN(C)c1ccc(C=C2CCC(=Cc3ccc(N(C)COCCOCCOCCOCCOC)cc3)C2=O)cc1`, in data set [14], the logD came out at 2.73.
In [3], `COC1=C(C2=C(OC)C(=O)c3cc4c(c(O)c3C2=O)C(=O)O[C@H](C)C4)C(=O)c2c(cc3c(c2O)C(=O)O[C@H](C)C3)C1=O` returned a logD of 0.37.
`COc1cccc2c1C(=O)c1c(O)c3c(c(O)c1C2=O)C[C@@](O)(C(=O)CO)C[C@@H]3O[C@H]1C[C@H](NC(C)=O)[C@H](O)[C@H](C)O1`: the logD in [16] worked out at 1.27.
As for `CCCCCN=c1ccn(Cc2cccc3ccccc23)c2cc(Cl)ccc12`, the logP in [17] is 4.01.
With `CNc1ccc(C=Cc2ccc(OCCOCCOCCOCCF)cc2)cc1`, the logD in [5] came out at 2.05.
For the molecule `CC(CCC(=O)NCC(=O)O)C1CCC2C3C(O)CC4CC(O)CCC4(C)C3CC(C)(O)C12` (stereo not drawn), in data set [4], the logD turned out to be 1.9.
For the molecule `O=C(NCCc1ccc(S(=O)(=O)NC2CCCCC2)cc1)c1cc(I)ccc1OCCF`, in data set [18], the logD was 2.15.
`CN1C=CCC(C(=O)NCCOC(=O)CCCc2ccc(N(CCCl)CCCl)cc2)=C1` came in with a pH-dependent lipophilicity (logD) in [12] of 2.16.
The molecule `COc1cccc2c1C(=O)c1c(O)c3c(c(O)c1C2=O)CC(O)(CCO)CC3OC1CC(NC(C)=O)C(O)C(C)O1` (stereo not drawn) returned a pH-dependent lipophilicity (logD) in data set [16] of 1.56.
Consider `CCCCCCCCCCOc1ccc(C(=O)Nc2cc(C(=O)NCCCC)ccc2SC)cc1`, for which, in data set [10], the logD was 5.2.
In the case of `CCN(CC)C(=O)C(C#N)=Cc1cc(OC(=O)CC(=O)C(C)(C)C)c(OC(=O)CC(=O)C(C)(C)C)c([N+](=O)[O-])c1`, the logP in [19] was 3.99.
In turn, `O=C(NCCc1ccc(S(=O)(=O)NC2CCCCC2)cc1)c1cc(Cl)ccc1OCCF` showed a logD in [18] of 2.09.
Consider `CCCCCN=c1ccn(Cc2ccc3ccccc3c2)c2cc(Cl)ccc12`, for which the logP in [17] worked out at 4.16.
Molecule `CC(=O)O[C@H]1C(=O)[C@@]2(C)[C@H]([C@H](OC(=O)c3ccccc3)[C@]3(O)C[C@H](OC(=O)[C@H](O)Cc4ccccc4)C(C)=C1C3(C)C)[C@]1(OC(C)=O)CO[C@@H]1C[C@@H]2O` gave a logP of 2.9.
In the case of `COc1cc(OCCF)cc(OC)c1NC(=O)c1ccc(Oc2cc3c(cc2C)CCC3(C)C)o1`, the logD in data set [7] was found to be 2.1.
With `CCCCC(OC(Cc1ccccc1)C(=O)N1CCC(OCOC)CC1)C(=O)NC(CC1CCCCC1)[C@@H](O)CC(C(=O)NCCCN/C(=N/C)NC#N)C(C)C` (stereo partly drawn), the logD in data set [20] came to 4.4.
Take `COc1ccc2c(c1)C1(C)CCC3c4cc(I)c(O)cc4CCC3C1C2` (stereo not drawn): the logD in [8] turned out to be 1.8.
`CC(=O)OCC1OC(OCCN(C)C(=O)n2ccnc2[N+](=O)[O-])C(OC(C)=O)C(OC(C)=O)C1OC(C)=O` (stereo not drawn): the logD in data set [21] is -0.98.
In data set [9], `CC(C)C[C@H](NC(=O)[C@@H]1CCCN1C(=O)[C@@H](N)Cc1ccc(O)cc1)C(=O)NCC(N)=O` (H-YPLG-NH2) had a logP of 0.06.
Take `C=CC(=O)Nc1ccc(S(=O)(=O)N2CCN(C(=O)C34CC5CC(CC(C5)C3)C4)CC2)cc1`: in data set [15], the logD was determined as 2.67.
Consider `CCN(CC)C(=O)C(C#N)=Cc1cc(OCOC(=O)C(C)(C)C)c(OCOC(=O)C(C)(C)C)c([N+](=O)[O-])c1`, for which the logP in data set [19] turned out to be 3.86.
`CC(=O)NC1C(OCCN(C)C(=O)Cn2ccnc2[N+](=O)[O-])OC(COC(C)=O)C(OC(C)=O)C1OC(C)=O` (stereo not drawn) had a logD in data set [21] of -1.29.
In data set [11], `Cc1cc2ncn(CC(O)COc3cc(OCC(O)Cn4cnc5cc(C)c(C)cc54)c4c(C)cc(=O)oc4c3)c2cc1C` (stereo not drawn) came in with a logP of 0.61.
